Source: US20190194148A1, “TETRAZOLE-CONTAINING 1,2-CYCLOPROPANE-CARBOXAMIDES” (Bayer Pharma Aktiengesellschaft, priority 2017, published 2019)

molecular target: T1, human B1 receptor (Homo sapiens, UniProt P46663); experiment: Calcium flux assay (FLIPR) with recombinant CHO-K1 cells expressing human B1 receptor; assay type: cell-based; conditions: absence of 0.1% BSA in assay buffer, read-out: hB1 free IC50
T1 construct: host or cells: CHO-K1
T1 sequence (P46663 1-353): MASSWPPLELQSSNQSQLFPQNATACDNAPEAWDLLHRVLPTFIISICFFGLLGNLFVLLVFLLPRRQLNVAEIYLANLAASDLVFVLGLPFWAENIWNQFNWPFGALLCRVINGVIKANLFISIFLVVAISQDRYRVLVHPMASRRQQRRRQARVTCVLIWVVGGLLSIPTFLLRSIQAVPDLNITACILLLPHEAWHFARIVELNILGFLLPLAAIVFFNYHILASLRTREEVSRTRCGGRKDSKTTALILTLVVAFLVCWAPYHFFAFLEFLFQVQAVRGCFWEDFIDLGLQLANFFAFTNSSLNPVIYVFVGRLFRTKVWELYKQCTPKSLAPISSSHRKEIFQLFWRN
Procedure: The potency to inhibit the Bradykinin B1 receptors was determined for the example compounds of this invention in a cell-based fluorescent calcium-mobilisation assay. The assay measures the ability of example compounds to inhibit Bradykinin B1 receptor agonist-induced increase of intracellular free Ca^2+ in the cell line expressing B1 receptor. Specifically, calcium indicator-loaded cells are pre-incubated in the absence or presence of different concentrations of example compounds followed by the stimulation with a selective B1 receptor agonist peptide. The change of the intracellular Ca^2+ concentration is monitored with a fluorescent plate reader FLIPR (Molecular Devices).
Calcium Flux Assays (FLIPR) with Cells Expressing Bradykinin B1 Receptor Calcium Flux Assay (FLIPR) with Recombinant Cells for Bradykinin B1 Receptor Antagonist, Either in the Presence (hB1 IC50) or Absence (hB1 free IC50) of 0.1% Bovine Serum Albumin (BSA) in Assay Buffer
CHO-K1 cell line expressing human B1 receptor was purchased from Euroscreen (Gosselies, Belgium, with reference name hB1-D1). The cells were grown in Nutrient Mixture Ham's F12 (Sigma) containing 10% Foetal bovine serum (Sigma) and 400 μg/mL G418 (Sigma), 5 μg/mL puromycin (Sigma).
For the calcium flux assay, 80% confluent cells were detached from the culture vessels with Versene (Gibco), and seeded into 384-well plates (Cell binding Surface; Corning, N.Y.; #3683) at a density of 15,000 cells per well. Cells were seeded in a volume of 50 μL in medium without antibiotics and incubated overnight in a humidified atmosphere with 5% CO2 at 37° C. […] The calcium indicator loaded cells were incubated at 37° C. for 2 hrs. Extracellular dye was then removed and each well was filled with 45 μL of assay buffer. Cell plates were kept in dark until used. Example compounds were assayed at 8 concentrations in triplicate. Serial 10-fold dilutions in 100% DMSO were made at a 100-times higher concentration than the final concentration, and then diluted 1:10 in assay buffer. 5 μL of each diluted compound was added to the well of cell plates (yielding final concentration with 1% DMSO), and incubated for 30 min at 28° C. before the addition of B1 receptor agonist on the FLIPR instrument.
Agonist plates contained the agonist Lys-(Des-Arg)-Bradykinin (Bachem, Brackley) at 3.5×EC90 in assay buffer with 1% DMSO. The addition of agonist 20 μl per well to the assay plate was carried out on the FLIPR instrument while continuously monitoring Ca^2+-dependent fluorescence at 538 nm. A peptide antagonist Lys-(Des-Arg-Leu)-Bradykinin (Bachem, Brackley) at 20 μM was used to determine the full inhibition as control.
Peak fluorescence was used to determine the response to agonist obtained at each concentration of example compound by the following equation:
% Response=100*(RFU(example compound)−RFU(control)/(RFU(DMSO)−RFU(control)
Control=full inhibition by the peptide antagonist Lys-(Des-Arg-Leu)-Bradykinin at 20 μM
The response values were plotted against the logarithm of the compound concentrations. The compounds were tested in triplicates per plate and mean values were plotted in Excel XLfit to determine IC50 values, percentage of maximal inhibition and the Hill slopes.

Structure (SMILES)	IC50 [nM]
CCOc1ncc(-c2ccc(NC(=O)C3CC3c3ccc(Cl)cc3)cc2-c2nnn[nH]2)cn1 (racemic) [Example 27, 2-(4-Chlorophenyl)-N-[4-(2-ethoxypyrimidin-5-yl)-3-(1H-tetrazol-5-yl)phenyl]cyclopropane-carboxamide]	13
O=C(Nc1ccc(-c2ccc(C(F)(F)F)nc2)c(-c2nnn[nH]2)c1)C1CC1c1ccccc1 (racemic) [Example 28, 2-Phenyl-N-{3-(1H-tetrazol-5-yl)-4-[6-(trifluoromethyl)pyridin-3-yl]phenyl}cyclopro-panecarboxamide]	509
CC1(C(=O)Nc2ccc(-c3ccc(C(F)(F)F)nc3)c(-c3nnn[nH]3)c2)CC1c1ccccc1 (racemic) [Example 29, 1-Methyl-2-phenyl-N-{3-(1H-tetrazol-5-yl)-4-[6-(trifluoromethyl)pyridin-3-yl]phenyl}cyclopro-panecarboxamide]	526
O=C(Nc1ccc(-c2ccc(C(F)(F)F)nc2)c(-c2nnn[nH]2)c1)C1CC1C1CCCCC1 (racemic) [Example 30, 2-Cyclohexyl-N-{3-(1H-tetrazol-5-yl)-4-[6-(trifluoromethyl)pyridin-3-yl]phenyl}cyclopro-panecarboxamide]	514

Further lines, results first:

IC50 [nM]	Structure (SMILES)
12	COc1ccc(-c2ccc(NC(=O)C3CC3c3ccccc3C)cc2-c2nnn[nH]2)cc1OC (racemic) [Example 4, N-[3′,4′-dimethoxy-2-(1H-tetrazol-5-yl)biphenyl-4-yl]-2-(2-methylphenyl)cyclopro-panecarboxamide]
6	COc1ccc(-c2ccc(NC(=O)C3CC3c3ccccc3OC(F)(F)F)cc2-c2nnn[nH]2)cc1OC (racemic) [Example 6, N-[3′,4′-dimethoxy-2-(1H-tetrazol-5-yl)biphenyl-4-yl]-2-[2-(trifluoromethoxy)phen-yl]cyclopropane-carboxamide]
6	COc1ccc(-c2ccc(NC(=O)C3CC3c3cccc(C)c3)cc2-c2nnn[nH]2)cc1OC (racemic) [Example 7, N-[3′,4′-dimethoxy-2-(1H-tetrazol-5-yl)biphenyl-4-yl]-2-(3-methylphenyl)cyclopro-panecarboxamide]

same assay, conditions: presence of 0.1% BSA in assay buffer, read-out: hB1 IC50

Structure (SMILES)	IC50 [nM]
COc1ccc(-c2ccc(NC(=O)C3CC3c3cnn(C)c3)cc2-c2nnn[nH]2)cc1OC (racemic) [Example 2, N-[3′,4′-dimethoxy-2-(1H-tetrazol-5-yl)biphenyl-4-yl]-2-(1-methyl-1H-pyrazol-4-yl)cyclopropanecarbox-amide]	2120
COc1ccc(C2CC2C(=O)Nc2ccc(-c3ccc(OC)c(OC)c3)c(-c3nnn[nH]3)c2)cc1 (racemic) [Example 13, N-[3′,4′-dimethoxy-2-(1H-tetrazol-5-yl)biphenyl-4-yl]-2-(4-methoxyphenyl)cyclo-propanecarboxamide]	1050
CCOc1ccc(-c2ccc(NC(=O)C3CC3C3CCCCC3)cc2-c2nnn[nH]2)cn1 (racemic) [Example 20, 2-Cyclohexyl-N-[4-(6-ethoxypyridin-3-yl)-3-(1H-tetrazol-5-yl)phenyl]cyclopro-panecarboxamide]	389
CCOc1cncc(-c2ccc(NC(=O)C3CC3c3ccc(Cl)cc3)cc2-c2nnn[nH]2)c1 (racemic) [Example 22, 2-(4-Chlorophenyl)-N-[4-(5-ethoxypyridin-3-yl)-3-(1H-tetrazol-5-yl)phenyl]cyclopro-panecarboxamide]	603
COc1cncc(-c2ccc(NC(=O)C3CC3c3cccc(C)c3)cc2-c2nnn[nH]2)c1 (racemic) [Example 25, N-[4-(5-Methoxypyridin-3-yl)-3-(1H-tetrazol-5-yl)phenyl]-2-(3-methylphenyl)cyclopro-panecarboxamide]	520
COc1cncc(-c2ccc(NC(=O)C3CC3c3ccc(Cl)cc3)cc2-c2nnn[nH]2)c1 (racemic) [Example 26, 2-(4-Chlorophenyl)-N-[4-(5-methoxypyridin-3-yl)-3-(1H-tetrazol-5-yl)phenyl]cyclopro-panecarboxamide]	372
O=C(Nc1ccc(-c2ccc(C(F)(F)F)nc2)c(-c2nnn[nH]2)c1)C1CC1C1CCCCC1 (racemic) [Example 30, 2-Cyclohexyl-N-{3-(1H-tetrazol-5-yl)-4-[6-(trifluoromethyl)pyridin-3-yl]phenyl}cyclopro-panecarboxamide]	3300

Further lines, results first:

IC50 [nM]	Structure (SMILES)
341	CCc1ccc(C2CC2C(=O)Nc2ccc(-c3ccc(OC)c(OC)c3)c(-c3nnn[nH]3)c2)cc1 (racemic) [Example 12, N-[3′,4′-dimethoxy-2-(1H-tetrazol-5-yl)biphenyl-4-yl]-2-(4-ethylphenyl)cyclopro-panecarboxamide]
310	COc1cncc(-c2ccc(NC(=O)C3CC3C3CCCCC3)cc2-c2nnn[nH]2)c1 (racemic) [Example 24, 2-Cyclohexyl-N-[4-(5-methoxypyridin-3-yl)-3-(1H-tetrazol-5-yl)phenyl]cyclopro-panecarboxamide]
303	CCOc1cncc(-c2ccc(NC(=O)C3CC3c3cccc(C)c3)cc2-c2nnn[nH]2)c1 (racemic) [Example 23, N-[4-(5-Ethoxypyridin-3-yl)-3-(1H-tetrazol-5-yl)phenyl]-2-(3-methylphenyl)cyclopro-panecarboxamide]
209	COc1ccc(-c2ccc(NC(=O)C3CC3c3ccccc3)cc2-c2nnn[nH]2)cc1OC (racemic) [Example 1, N[3′,4′-dimethoxy-2-(1H-tetrazol-5-yl)biphenyl-4-yl]-2-phenylcyclopropanecarboxamide]
101	COc1ccc(-c2ccc(NC(=O)C3CC3c3ccccc3F)cc2-c2nnn[nH]2)cc1OC (racemic) [Example 3, N-[3′,4′-dimethoxy-2-(1H-tetrazol-5-yl)biphenyl-4-yl]-2-(2-fluorophenyl)cyclopro-panecarboxamide]
95	COc1ccc(-c2ccc(NC(=O)C3CC3c3ccc(F)cc3)cc2-c2nnn[nH]2)cc1OC (racemic) [Example 11, N-[3′,4′-dimethoxy-2-(1H-tetrazol-5-yl)biphenyl-4-yl]-2-(4-fluorophenyl)cyclopro-panecarboxamide]
33	COc1ccc(-c2ccc(NC(=O)C3CC3c3ccc(C)cc3)cc2-c2nnn[nH]2)cc1OC (racemic) [Example 10, N-[3′,4′-dimethoxy-2-(1H-tetrazol-5-yl)biphenyl-4-yl]-2-(4-methylphenyl)cyclopro-panecarboxamide]
27	COc1ccc(-c2ccc(NC(=O)C3CC3c3ccccc3C)cc2-c2nnn[nH]2)cc1OC (racemic) [Example 4, N-[3′,4′-dimethoxy-2-(1H-tetrazol-5-yl)biphenyl-4-yl]-2-(2-methylphenyl)cyclopro-panecarboxamide]
27	CCOc1ccc(-c2ccc(NC(=O)C3CC3C3CCCCC3)cc2-c2nnn[nH]2)cc1OC (racemic) [Example 31, 2-cyclohexyl-N-[4′-ethoxy-3′-methoxy-2-(1H-tetrazol-5-yl)biphenyl-4-yl]cyclopropane-carboxamide]
22	COCc1ccc(-c2ccc(NC(=O)C3CC3c3ccc(Cl)cc3)cc2-c2nnn[nH]2)cc1C (racemic) [Example 32, 2-(4-chlorophenyl)-N-[4′-(methoxymethyl)-3′-methyl-2-(1H-tetrazol-5-yl)biphenyl-4-yl]cyclopro-panecarboxamide]
20	COc1ccc(-c2ccc(NC(=O)C3CC3c3ccccc3OC(F)(F)F)cc2-c2nnn[nH]2)cc1OC (racemic) [Example 6, N-[3′,4′-dimethoxy-2-(1H-tetrazol-5-yl)biphenyl-4-yl]-2-[2-(trifluoromethoxy)phen-yl]cyclopropane-carboxamide]
19	COc1ccc(-c2ccc(NC(=O)C3CC3c3cccc(C)c3)cc2-c2nnn[nH]2)cc1OC (racemic) [Example 7, N-[3′,4′-dimethoxy-2-(1H-tetrazol-5-yl)biphenyl-4-yl]-2-(3-methylphenyl)cyclopro-panecarboxamide]
19	COc1ccc(-c2ccc(NC(=O)C3CC3c3ccc(Cl)cc3)cc2-c2nnn[nH]2)cc1OC (racemic) [Example 9, 2-(4-chlorophenyl)-N-[3′,4′-dimethoxy-2-(1H-tetrazol-5-yl)biphenyl-4-yl]cyclo-propanecarboxamide]
16	CCc1ccccc1C1CC1C(=O)Nc1ccc(-c2ccc(OC)c(OC)c2)c(-c2nnn[nH]2)c1 (racemic) [Example 5, N-[3′,4′-dimethoxy-2-(1H-tetrazol-5-yl)biphenyl-4-yl]-2-(2-ethylphenyl)cyclopro-panecarboxamide]
15	CCOc1ccc(-c2ccc(NC(=O)C3CC3c3ccc(F)cc3)cc2-c2nnn[nH]2)cn1 (racemic) [Example 16, N-[4-(6-ethoxypyridin-3-yl)-3-(1H-tetrazol-5-yl)phenyl]-2-(4-fluorophenyl)cyclopro-panecarboxamide]
